Experiments:
[1] = test system: patients with symptomatic gout; conditions: after doses of 4 to 12 mg, within 24 to 72 hours, from 11.1±0.6 mg/dL; cited from earlier work
[2] = test system: anti-pegloticase antibodies, anti-PEG antibodies; test: Immunogenicity in clinical trials: antibody incidence and its relation to response and infusion reactions; assay type: in vivo, human
Description: A relationship between the loss of urate-lowering efficacy, incidence of IRs, and high-titer antibody formation was identified in a post-hoc analysis of the pooled data from the Phase 3 studies. […] In one study, 69 (41%) of 169 patients receiving pegloticase developed high titer anti-pegloticase antibodies and subsequently lost response to the drug. In a second study, only 1 of 52 participants with high antibody titers maintained a response to pegloticase (serum urate <6 mg/dL). In addition, 60% participants with high titers developed IR. Anti-pegloticase antibodies were largely directed to the polyethylene glycol (PEG) portion of the molecule and altered the pharmacokinetic clearance of pegloticase, resulting in inhibition of SUA lowering activity. […] In addition, 31 of 52 (60%) patients with titers exceeding 1:2430 developed IRs. […] By preventing the formation of anti-pegloticase antibodies, a tolerizing dose regimen should prevent loss of response to the drug and decrease the incidence of IRs associated with it.
Anti-pegloticase antibodies developed in 92% of patients treated with KXX every 2 weeks, and 28% for placebo. Anti-PEG antibodies were also detected in 42% of patients treated with KXX. High anti-pegloticase antibody titer was associated with a failure to maintain pegloticase-induced normalization of uric acid. The impact of anti-PEG antibodies on patients' responses to other PEG-containing therapeutics is unknown.
There was a higher incidence of infusion reactions in patients with high anti-pegloticase antibody titer: 53% (16 of 30) in the KXX every 2 weeks group compared to 6% in patients who had undetectable or low antibody titers.

[3] = test system: patients with chronic gout refractory to conventional therapy; test: Infusion reactions with the dosage regimen described herein (stopping at SUA >6 mg/dL); assay type: in vivo, human; conditions: dosage regimen as described herein, strict adherence to stopping at serum uric acid greater than 6 mg/dL
Description: Study Design—In order to evaluate a tolerizing regimen of pegloticase (i.e., the main study), an open label, multicenter, 24-week study is performed. Eligible subjects weighing <120 kg receive pegloticase 8 mg intravenously (IV) on a weekly basis (week 1 through week 3—“Tolerizing Period”), followed by 8 mg IV every 2 weeks through week 25 for a total of 14 doses. Subjects weighing ≥120 kg are sequentially assigned to 1 of 3 different loading doses (8, 12, and 16 mg) on Study Day 1, and then receive 8 mg on weeks 2 and 3, followed by 8 mg every 2 weeks through week 25 for a total of 14 doses.
Eligible subjects weighing <120 kg will receive pegloticase 8 mg IV every 2 weeks through week 25 for a total of 13 doses. Subjects will also receive AZA (1.25 mg/kg orally daily for 1 week then 2.5 mg/kg orally daily) beginning 2 weeks prior to the first dose of pegloticase through week 25. Subjects are monitored for efficacy and safety endpoints, including hematology and liver function tests, through week 25. Subjects also have blood drawn for trough pegloticase, anti-pegloticase antibody, and anti-PEG antibody levels prior to each dose after week 1, on weeks 3, 5, 7, 9, 11, 13, 15, 17, 19, 21, 23, and 25; and sampling for trough AZA metabolite levels prior to all doses of pegloticase. […]

[4] = test system: patients with refractory chronic gout; conditions: Phase 2 program; cited from earlier work
[5] = test system: patients with chronic gout refractory to conventional therapy; test: Two replicate randomized, double-blind, placebo controlled six-month studies (Trial 1 and Trial 2): urate lowering and tophi; assay type: in vivo, human
Description: The efficacy of KXX was studied in adult patients with chronic gout refractory to conventional therapy in two replicate, multicenter, randomized, double-blind, placebo controlled studies of six months duration: Trial 1 and Trial 2. Patients were randomized to receive KXX 8 mg every 2 weeks or every 4 weeks or placebo in a 2:2:1 ratio.
Studies were stratified for the presence of tophi. Seventy-one percent (71%) of patients had baseline tophi. All patients were prophylaxed with an oral antihistamine, intravenous corticosteroid and acetaminophen. Patients also received prophylaxis for gout flares with non-steroidal anti-inflammatory drugs (NSAIDs) or colchicine, or both, beginning at least one week before KXX treatment unless medically contraindicated or not tolerated. Patients who completed the randomized clinical trials were eligible to enroll in a 2-year open label extension study.
To assess the efficacy of KXX in lowering uric acid, the primary endpoint in both trials was the proportion of patients who achieved plasma uric acid (PUA) less than 6 mg/dL for at least 80% of the time during Month 3 and Month 6.
The effect of treatment on tophi was a secondary efficacy endpoint and was assessed using standardized digital photography, image analysis, and a Central Reader blinded to treatment assignment. Approximately 70% of patients had tophi at baseline. A pooled analysis of data from Trial 1 and Trial 2 was performed as pre-specified in the protocols. At Month 6, the percentage of patients who achieved a complete response (defined as 100% resolution of at least one target tophus, no new tophi appear and no single tophus showing progression) was 45%, 26%, and 8%, with KXX 8 mg every 2 weeks, KXX 8 mg every 4 weeks, and placebo, respectively. The difference between KXX and placebo was statistically significant for the every-2-week dosing regimen, but not for the every-4-week dosing regimen.

[6] = test system: patients with symptomatic gout; test: Single-dose, dose-ranging trial: plasma uric acid and plasma uricase activity; assay type: in vivo, human
Text: In some embodiments, patients or subjects of the present disclosure may have blood samples taken for PK analysis during treatment with KXX, either alone, or co-administered with an immunosuppressive agent, such as AZA. Although limited PK results have been reported in subjects receiving pegloticase, and no PK studies have been performed in subjects weighing ≥120 kg, the present disclosure provides PK analysis in patients receiving KXX treatment, either alone or co-administered with an immunosuppressive agent or therapy. Sundy et al. (JAMA 306(7):711-20, 2011) reported results from 24 subjects with refractory gout who received single doses from 0.5 to 12 mg of pegloticase. PK parameters included plasma uricase activity (pUox) and the plasma urate concentration (pUAc). […] It remains uncertain whether body mass affects drug distribution. Since pegloticase is administered as a single dose regardless of body mass, this is important to assess.
The duration of suppression of plasma uric acid appeared to be positively associated with pegloticase dose.

[7] = post-hoc, if KXX stopped after 2 consecutive uric acid levels greater than 6 mg/dL
[8] = post-hoc, if KXX stopped when uric acid rose to greater than 6 mg/dL on a single occasion

Substance: pegloticase
- plasma urate concentration (pUAc), mean±SD [1]: 1.0±0.5 mg/dL
- patients who developed anti-pegloticase antibodies ([2]; KXX every 2 weeks): 92%
- incidence of infusion reactions in patients with high anti-pegloticase antibody titer ([2]; KXX every 2 weeks group, 16 of 30): 53%
- incidence of infusion reactions in patients with undetectable or low antibody titers ([2]; human, in vivo): 6%
- patients with anti-PEG antibodies detected ([2]; patients treated with KXX): 42%
- infusion reactions that occurred [3]: only a single infusion reaction occurred
- dose-response plateau dose [4]: 12 mg
- minimally effective dose [4]: 4 mg
- safe and optimally effective dose [4]: 8 mg
- efficacy in patients with creatinine clearance less than or equal to 62.5 mL/min ([5]; KXX 8 mg every 2 weeks): No overall differences
- percentage of patients who achieved a complete response of tophi ([5]; Month 6, pooled Trial 1 and Trial 2, KXX 8 mg every 2 weeks): 45%
- percentage of patients who achieved a complete response of tophi ([5]; Month 6, pooled Trial 1 and Trial 2, KXX 8 mg every 4 weeks): 26%
- Number (%) of Subjects Who Met Response Criteria (plasma uric acid <6 mg/dL for at least 80% of the time during Months 3 and 6) ([5]; Trial 1, 8 mg every 2 weeks, N 43): 20 (47%) Number (%)
- Number (%) of Subjects Who Met Response Criteria (plasma uric acid <6 mg/dL for at least 80% of the time during Months 3 and 6) ([5]; Trial 1, 8 mg every 4 weeks, N 41): 8 (20%) Number (%)
- Number (%) of Subjects Who Met Response Criteria (plasma uric acid <6 mg/dL for at least 80% of the time during Months 3 and 6) ([5]; Trial 2, 8 mg every 2 weeks, N 42): 16 (38%) Number (%)
- Number (%) of Subjects Who Met Response Criteria (plasma uric acid <6 mg/dL for at least 80% of the time during Months 3 and 6) ([5]; Trial 2, 8 mg every 4 weeks, N 43): 21 (49%) Number (%)
- mean plasma uric acid level ([5]; approximately 24 hours following the first dose, KXX 8 mg every 2 weeks group): 0.7 mg/dL
- efficacy outcome [5, 7]: little change
- incidence of infusion reactions [5, 7]: half
- reduction of success rates for the primary efficacy endpoint [5, 8]: approximately 20%
- reduction of the incidence of infusion reactions [5, 8]: approximately 67%
- plasma uric acid versus dose ([6]; 0.5, 1, 2, 4, 8 or 12 mg, 24 patients): decreased with increasing pegloticase dose or concentrations
- duration of sustained decrease in plasma uric acid below 6 mg/dL ([6]; single doses of 8 mg and 12 mg, 1-hour intravenous infusion): more than 300 hours
